According to publication PMC6934184, “Selective DNA-PKcs inhibition extends the therapeutic index of localized radiotherapy and chemotherapy” (The Journal of Clinical Investigation, 2019):
Where “and” joins values, the source holds several entries; their conditions need not be identical. Equal values may be shown once. Entries after “also recorded” stand apart in the source; their conditions may differ.

Test system: SJSA-1 tumor xenografts
Experiment: subcutaneous SJSA-1 xenograft with parenteral etoposide
Format: in vivo, CD-1 nude mice
Procedure: Combining systemic administration of etoposide + NU5455 in vivo
SJSA1 cells (1 x 10^7 cells/mouse in 50 µl, 50% v/v Matrigel) were implanted s.c. into the right flank of female CD-1 nude mice. When tumor volumes reached 103-121 mm3 mice were treated daily, for five consecutive days, with NU5455 (30 mg/kg or 100 mg/kg once -daily p.o. in NMP:Encapsin (30% aq):PEG4000 (1:6:3 v/v/v) ) or vehicle, followed immediately with etoposide (5 mg/kg i.p. in saline). Body weight and tumor volume measurements were taken daily during treatment and three times per week post -treatment. Tumor volume was calculated from two-dimensional electronic caliper measurements (Mitutoyo) using the equation ‘width2 x length/2’, where width was the smaller side, and length the longer dimension of the tumor. Mice were humanely killed when; (i) an adverse effect on clinical condition was evident, (ii) tumor bilateral measurements reached 10 mm x 10 mm, (iii) a tumor measurement in any di mension reached 15 mm, or (iv) at study termination. […]

SMILES: CN(C(=O)CN1CCOCC1)c1ccc2sc3c(-c4cccc5c(=O)cc(N6CC7CCC(C6)O7)oc45)cccc3c2c1 [NU5455]
- enhancement of etoposide antitumor effect (NU5455 30 mg/kg oral + etoposide 5 mg/kg i.p., 5 consecutive days): does not significantly enhance; also recorded: did not enhance it significantly
- body weight (NU5455 100 mg/kg oral + etoposide 5 mg/kg i.p.): increased weight loss by day 8
- enhancement of etoposide antitumor activity (NU5455 100 mg/kg oral + etoposide 5 mg/kg i.p., 5 sequential days): potentiated significantly
- animals requiring humane intervention (>15% body-weight loss) (day 8, NU5455 100 mg/kg oral + etoposide 5 mg/kg i.p.): 2 of 10 and 2
- tolerability, NU5455 alone (greater dose (100 mg/kg oral)): well tolerated by itself
